# Results from patent US4543350A, “Carcinostatic agent” (Sanyo Machine Works, Ltd., priority 1982, dated 1985).
# “And” between values parts separate entries of the source, which are not always exact repeats. Equal entries are not always repeated.
# Key:
# [1] = system: Colon 26 (Balb/C Colon cancer); assay: Colon 26 transplanted subcutaneously to Balb/C mice: tumor weight and survival rate; format: in vivo; conditions: Colon 26 s.c. in Balb/C mice; Eisenin i.p. 5 mg per animal every other day three times
# Text: (§1) The animals used as experimental materials were Balb/C mice and nude mice, and the tumors used were Colon (Balb/C Colon cancer) and Sarcoma 180.
# a. 1,000,000 Cells of Colon 26 were transplanted subcutaneously to Balb/C mice.
# Balb/C mice = assay: Acute toxicity test; format: in vivo; conditions: for No. of Death: 9 Balb/C mice
# Water solubility = format: physicochemical
# [2] = Effective dosage estimated from the various test results; format: in vivo; conditions: average body weight of Balb/C mice taken as 20 g
# Colon 26 = assay: Sensitivity test: inclusion of tritium thymidine, uridine and leucine into cultured Colon 26; format: cell-based; conditions: for Average Counts per Minute, Leucine / Counts per Minute in the Case of Leucine: leucine (protein); for Average Counts per Minute, Leucine / Counts per Minute in the Case of Leucine / Average Counts per Minute, Tritium Thymidine / Counts per Minute in the Case of Tritium Thymidine / Average Counts per Minute, Uridine / Counts per Minute in the Case of Uridine: 3 days; for Counts per Minute in the Case of Leucine / Counts per Minute in the Case of Tritium Thymidine / Counts per Minute in the Case of Uridine: single counts; for Average Counts per Minute, Tritium Thymidine / Counts per Minute in the Case of Tritium Thymidine: tritium thymidine (DNA); for Average Counts per Minute, Uridine / Counts per Minute in the Case of Uridine: uridine (RNA)
# Method: (1) Inhibition Index (I.I.) is calculated from the following equation, an
# where I.I. exceeds 75%, it is judged effective.
# - (2) Measurement is made on a scintillation counter.
# [3] = system: BW 5174 (thymoma of AKR mouse); assay: Cytotoxicity test (51Cr release) of spleen and intraperitoneal cells of Eisenin-administered mice; format: cell-based
# Text: Further, the target cell employed was BW 5174 (thymoma of AKR mouse). The spleen cells and the intraperitoneal cells were respectively divided into the adherent cells and the non-adherent cells, and cytotoxicity was examined in each case.
# (1) Percent Cytotoxicity (%) in Table 3 is based on the following
# (2) Measurement is made by ^51 Cr release assay. (3) Acute Toxicit
# Sarcoma 180 = Sarcoma 180 transplanted subcutaneously to Balb/C mice: tumor weight; format: in vivo; conditions: Sarcoma 180 s.c. in Balb/C mice; Eisenin i.p. and orally 5 mg per animal every other day three times
# Text: as §1
substance,measurement,setting,value
L-Pyroglu-L-Gln-L-Ala [Eisenin],"anti-tumor effect (weight of the tumor, survival rate; FIG. 1, FIG. 2)",[1],an anti-tumor effect of Eisenin is recognized
same,No. of Death,Balb/C mice; Eisenin 3 g/kg intraperitoneally,1/9
same,No. of Death,Balb/C mice; Eisenin 6 g/kg intraperitoneally,7/9
same,LD50,"Balb/C mice; intraperitoneal, Balb/C mice",~5000 mg/kg
same,solubility in water,Water solubility,water soluble
same,effective dosage as estimated from the test results,[2],about 15 mg per 20 g
same,direct effect on tumor cells (sensitivity test; I.I. above 75% is judged effective),"Colon 26; Colon 26 culture, all concentrations and labels",no direct effect of Eisenin on tumor cells
same,"Average Counts per Minute, Leucine",Colon 26; Eisenin 0.0001 mg/ml,12232 CPM
same,Counts per Minute in the Case of Leucine,Colon 26; Eisenin 0.0001 mg/ml,12952 CPM and 11936 CPM and 11808 CPM and 10952 CPM
same,"Average Counts per Minute, Leucine",Colon 26; Eisenin 0.001 mg/ml,13743 CPM
same,Counts per Minute in the Case of Leucine,Colon 26; Eisenin 0.001 mg/ml,13620 CPM and 14230 CPM and 13379 CPM and 11355 CPM
same,"Average Counts per Minute, Leucine",Colon 26; Eisenin 0.01 mg/ml,11478 CPM
same,Counts per Minute in the Case of Leucine,Colon 26; Eisenin 0.01 mg/ml,12285 CPM and 11020 CPM and 12097 CPM and 11318 CPM
same,"Average Counts per Minute, Leucine",Colon 26; Eisenin 0.1 mg/ml,11318 CPM
same,Counts per Minute in the Case of Leucine,Colon 26; Eisenin 0.1 mg/ml,13311 CPM and 12566 CPM and 8076 CPM and 7076 CPM
same,"Average Counts per Minute, Leucine",Colon 26; Eisenin 1.0 mg/ml,6521 CPM
same,Counts per Minute in the Case of Leucine,Colon 26; Eisenin 1.0 mg/ml,6826 CPM and 6150 CPM and 6587 CPM
same,"Average Counts per Minute, Tritium Thymidine",Colon 26; Eisenin 0.0001 mg/ml,229878 CPM
same,Counts per Minute in the Case of Tritium Thymidine,Colon 26; Eisenin 0.0001 mg/ml,231236 CPM and 219336 CPM and 224786 CPM and 233612 CPM
same,"Average Counts per Minute, Tritium Thymidine",Colon 26; Eisenin 0.001 mg/ml,218332 CPM
same,Counts per Minute in the Case of Tritium Thymidine,Colon 26; Eisenin 0.001 mg/ml,220010 CPM and 213816 CPM and 221170 CPM and 213017 CPM
same,"Average Counts per Minute, Tritium Thymidine",Colon 26; Eisenin 0.01 mg/ml,238823 CPM
same,Counts per Minute in the Case of Tritium Thymidine,Colon 26; Eisenin 0.01 mg/ml,207474 CPM and 229569 CPM and 240628 CPM and 246273 CPM
same,"Average Counts per Minute, Tritium Thymidine",Colon 26; Eisenin 0.1 mg/ml,198381 CPM
same,Counts per Minute in the Case of Tritium Thymidine,Colon 26; Eisenin 0.1 mg/ml,190120 CPM and 203872 CPM and 201151 CPM and 223845 CPM
same,"Average Counts per Minute, Tritium Thymidine",Colon 26; Eisenin 1.0 mg/ml,170297 CPM
same,Counts per Minute in the Case of Tritium Thymidine,Colon 26; Eisenin 1.0 mg/ml,140430 CPM and 171170 CPM and 163554 CPM and 176167 CPM
same,"Average Counts per Minute, Uridine",Colon 26; Eisenin 0.0001 mg/ml,30793 CPM
same,Counts per Minute in the Case of Uridine,Colon 26; Eisenin 0.0001 mg/ml,32836 CPM and 29585 CPM and 24135 CPM and 29958 CPM
same,"Average Counts per Minute, Uridine",Colon 26; Eisenin 0.001 mg/ml,31169 CPM
same,Counts per Minute in the Case of Uridine,Colon 26; Eisenin 0.001 mg/ml,39415 CPM and 31675 CPM and 28671 CPM and 33161 CPM
same,"Average Counts per Minute, Uridine",Colon 26; Eisenin 0.01 mg/ml,33039 CPM
same,Counts per Minute in the Case of Uridine,Colon 26; Eisenin 0.01 mg/ml,37043 CPM and 33211 CPM and 31498 CPM and 34408 CPM
same,"Average Counts per Minute, Uridine",Colon 26; Eisenin 0.1 mg/ml,25426 CPM
same,Counts per Minute in the Case of Uridine,Colon 26; Eisenin 0.1 mg/ml,32774 CPM and 25271 CPM and 24222 CPM and 26786 CPM
same,"Average Counts per Minute, Uridine",Colon 26; Eisenin 1.0 mg/ml,21107 CPM
same,Counts per Minute in the Case of Uridine,Colon 26; Eisenin 1.0 mg/ml,27088 CPM and 20903 CPM and 19954 CPM and 22463 CPM
same,"difference in cytotoxicity versus control group, intraperitoneal cells",[3],a significant difference
same,anti-tumor effect (weight of the tumor; FIG. 5),Sarcoma 180,a similar anti-tumor effect is recognized
